Test results taken from US20170355705A1 (GlaxoSmithKline Intellectual Property (No.2) Limited, priority 2014, published 2017).

biological target: T1, SIRT1 (Homo sapiens, UniProt Q96EB6); assay: Trp mass spectrometry assay of SIRT1 activity (EC1.5, percent maximum activation); format: biochemical; conditions: Trp mass spectrometry assay; 0.5 μM peptide substrate, 120 μM βNAD+, 10 nM SIRT1, 25 minutes at 25° C.
T1 sequence (Q96EB6 1-747): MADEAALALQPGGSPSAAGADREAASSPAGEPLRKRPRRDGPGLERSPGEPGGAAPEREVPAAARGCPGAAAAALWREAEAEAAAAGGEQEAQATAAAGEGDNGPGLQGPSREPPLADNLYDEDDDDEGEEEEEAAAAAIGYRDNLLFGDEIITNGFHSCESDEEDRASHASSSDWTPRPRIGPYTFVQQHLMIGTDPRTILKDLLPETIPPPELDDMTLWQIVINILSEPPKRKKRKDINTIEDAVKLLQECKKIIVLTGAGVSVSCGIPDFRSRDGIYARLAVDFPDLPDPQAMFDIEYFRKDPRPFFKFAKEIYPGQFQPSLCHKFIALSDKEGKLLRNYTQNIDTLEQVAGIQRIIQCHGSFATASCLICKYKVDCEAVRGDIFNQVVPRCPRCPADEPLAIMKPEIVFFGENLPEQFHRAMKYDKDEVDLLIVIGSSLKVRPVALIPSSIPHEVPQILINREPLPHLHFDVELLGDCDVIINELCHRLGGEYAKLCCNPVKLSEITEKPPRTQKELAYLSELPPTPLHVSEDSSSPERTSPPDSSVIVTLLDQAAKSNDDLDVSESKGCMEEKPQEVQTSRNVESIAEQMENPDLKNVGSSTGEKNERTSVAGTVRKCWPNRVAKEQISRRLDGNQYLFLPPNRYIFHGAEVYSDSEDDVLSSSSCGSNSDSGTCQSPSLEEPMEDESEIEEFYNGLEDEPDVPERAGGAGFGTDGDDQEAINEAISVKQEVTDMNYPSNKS
Outline: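 MS readout: O-acetyl-ADP-ribose (or deacetylated peptide) formed by His-tagged SIRT1 (BL21(DE3)-expressed) on 5TMR-Trp p53-based peptide, 25 min, formic acid stop. EC1.5 = concentration raising activity 50% over no-compound control; % max activation vs control = 100%.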

Row | Structure (SMILES) | TRP Activity (EC1.5, concentration of test compound that results in 150% activation of SIRT1) | TRP MAX RESP (percent maximum fold activation)
1 | Cc1cc(-c2ccc3c(n2)N(C(=O)Nc2cnccn2)[C@H]2CCN3C2)cc(C(F)(F)F)n1 [Example 223, (4S)-7-(2-methyl-6-(trifluoromethyl)pyridin-4-yl)-N-(pyrazin-2-yl)-3,4-dihydro-1,4-methanopyrido[2,3-b][1,4]diazepine-5(2H)-carboxamide] | A (EC1.5<1 μM) | A (Fold activation ≧150%)
2 | O=C(Nc1cccnc1)N1c2nc(-c3ccc(C(F)(F)F)nc3)ccc2N2CC[C@H]1C2 [Example 224, (4S)-N-(pyridin-3-yl)-7-(6-(trifluoromethyl)pyridin-3-yl)-3,4-dihydro-1,4-methanopyrido[2,3-b][1,4]diazepine-5(2H)-carboxamide] | B (EC1.5 1-25 μM) | A (Fold activation ≧150%)
3 | CCn1cc(-c2ccc3c(n2)N(C(=O)Nc2cnccn2)[C@H]2CCN3C2)cn1 [Example 225, (4S)-7-(1-ethyl-1H-pyrazol-4-yl)-N-(pyrazin-2-yl)-3,4-dihydro-1,4-methanopyrido[2,3-b][1,4]diazepine-5(2H)-carboxamide] | B (EC1.5 1-25 μM) | A (Fold activation ≧150%)
4 | O=C(Nc1cnccn1)N1c2nc(-c3ccc(OC(F)F)nc3)ccc2N2CC[C@H]1C2 [Example 226, (4S)-7-(6-(difluoromethoxy)pyridin-3-yl)-N-(pyrazin-2-yl)-3,4-dihydro-1,4-methanopyrido[2,3-b][1,4]diazepine-5(2H)-carboxamide] | B (EC1.5 1-25 μM) | A (Fold activation ≧150%)
5 | Cc1ccc(-c2ccc3c(n2)N(C(=O)Nc2ccnc(O[C@H]4CCOC4)n2)[C@H]2CCN3C2)cn1 [Example 227, (4S)-7-(6-methylpyridin-3-yl)-N-(2-(((S)-tetrahydrofuran-3-yl)oxy)pyrimidin-4-yl)-3,4-dihydro-1,4-methanopyrido[2,3-b][1,4]diazepine-5(2H)-carboxamide] | B (EC1.5 1-25 μM) | A (Fold activation ≧150%)
6 | Cc1cc(-c2ccc3c(n2)N(C(=O)N2CCO[C@H](C)C2)[C@H]2CCN3C2)ccn1.Cl [Example 232, ((R)-2-methylmorpholino)((4S)-7-(2-methylpyridin-4-yl)-3,4-dihydro-1,4-methanopyrido[2,3-b][1,4]diazepin-5(2H)-yl)methanone hydrochloride] | C (EC1.5>25 μM) | B (Fold Activation <150%)
7 | Cn1ccc(-c2ccc3c(n2)N(C(=O)Nc2cccnc2)[C@H]2CCN3C2)cc1=O [Example 233, (4S)-7-(1-methyl-2-oxo-1,2-dihydropyridin-4-yl)-N-(pyridin-3-yl)-3,4-dihydro-1,4-methanopyrido[2,3-b][1,4]diazepine-5(2H)-carboxamide] | B (EC1.5 1-25 μM) | A (Fold activation ≧150%)
8 | Cc1cc(-c2ccc3c(n2)N(C(=O)N2CCO[C@@H](C)C2)[C@H]2CCN3C2)ccn1.Cl [Example 234, ((S)-2-methylmorpholino)((4S)-7-(2-methylpyridin-4-yl)-3,4-dihydro-1,4-methanopyrido[2,3-b][1,4]diazepin-5(2H)-yl)methanone hydrochloride] | C (EC1.5>25 μM) | B (Fold Activation <150%)
9 | Cc1cc(NC(=O)N2c3nc(-c4ccnc(C)c4)ccc3N3CC[C@H]2C3)ccn1 [Example 235, (4S)-N-7-bis(2-methylpyridin-4-yl)-3,4-dihydro-1,4-methanopyrido[2,3-b][1,4]diazepine-5(2H)-carboxamide] | B (EC1.5 1-25 μM) | A (Fold activation ≧150%)
10 | Cc1cc(C)c(-c2ccc3c(n2)N(C(=O)Nc2cccnc2)[C@H]2CCN3C2)cn1 [Example 236, (4S)-7-(4,6-dimethylpyridin-3-yl)-N-(pyridin-3-yl)-3,4-dihydro-1,4-methano pyrido[2,3-b][1,4]diazepine-5(2H)-carboxamide] | B (EC1.5 1-25 μM) | A (Fold activation ≧150%)
11 | Cc1ccc(-c2ccc3c(n2)N(C(=O)NCC(C)(C)C)[C@H]2CCN3C2)cn1 [Example 237, (4S)-7-(6-methylpyridin-3-yl)-N-neopentyl-3,4-dihydro-1,4-methanopyrido[2,3-b][1,4]diazepine-5(2H)-carboxamide] | C (EC1.5>25 μM) | B (Fold Activation <150%)
12 | Cc1ccc(-c2ccc3c(n2)N(C(=O)Nc2cncc(C)n2)[C@H]2CCN3C2)cn1 [Example 238, (4S)-N-(6-methylpyrazin-2-yl)-7-(6-methylpyridin-3-yl)-3,4-dihydro-1,4-methanopyrido[2,3-b][1,4]diazepine-5(2H)-carboxamide] | B (EC1.5 1-25 μM) | A (Fold activation ≧150%)
13 | N#Cc1ccc(-c2ccc3c(n2)N(C(=O)Nc2cccnc2)[C@H]2CCN3C2)cn1 [Example 245] | – | A (Fold activation ≧150%)
14 | CC(C)n1cc(-c2ccc3c(n2)N(C(=O)Nc2cnccn2)[C@H]2CCN3C2)cn1 [Example 252] | – | A (Fold activation ≧150%)
15 | Cc1cc(-c2ccc3c(n2)N(C(=O)Nc2nccc(C)n2)[C@H]2CCN3C2)ccn1 [Example 263] | – | A (Fold activation ≧150%)
16 | Cn1ccc(-c2ccc3c(n2)N(C(=O)Nc2cnccn2)[C@H]2CCN3C2)cc1=O [Example 264] | – | A (Fold activation ≧150%)
17 | Cc1cc(-c2ccc3c(n2)N(C(=O)Nc2cc(-c4cnc(C)s4)ccn2)[C@H]2CCN3C2)ccn1 [Example 295] | – | A (Fold activation ≧150%)
18 | Nc1ccc(-c2ccc3c(n2)N(C(=O)Nc2ccccn2)[C@H]2CCN3C2)cn1 [Example 299] | – | A (Fold activation ≧150%)
19 | CC(C)(CO)COc1cncc(NC(=O)N2c3nc(-c4cccc(C(F)(F)F)c4)ccc3N3CC[C@H]2C3)n1 [Example 304, (4S)-N-(6-(3-hydroxy-2,2-dimethylpropoxy)pyrazin-2-yl)-7-(3-(trifluoromethyl)phenyl)-3,4-dihydro-1,4-methanopyrido[2,3-b][1,4]diazepine-5(2H)-carboxamide] | A (EC1.5<1 μM) | A (Fold activation ≧150%)
20 | O=C(Nc1cncc(OCCCO)n1)N1c2nc(-c3cccc(C(F)(F)F)c3)ccc2N2CC[C@H]1C2 [Example 319] | – | A (Fold activation ≧150%)
21 | CC(C)(CO)COc1nccc(NC(=O)N2c3nc(-c4cccc(C(F)(F)F)c4)ccc3N3CC[C@H]2C3)n1 [Example 321, (4S)-N-(2-(3-hydroxy-2,2-dimethylpropoxy)pyrimidin-4-yl)-7-(3-(trifluoromethyl)phenyl)-3,4-dihydro-1,4-methanopyrido[2,3-b][1,4]diazepine-5(2H)-carboxamide] | B (EC1.5 1-25 μM) | A (Fold activation ≧150%)
22 | Cc1nn(C)cc1-c1ccnc(NC(=O)N2c3nc(-c4ccnc(C(F)(F)F)c4)ccc3N3CC[C@H]2C3)c1 [Example 324] | – | A (Fold activation ≧150%)
23 | Cc1cc(-c2ccc3c(n2)N(C(=O)Nc2cc(-c4coc(C)n4)ccn2)[C@H]2CCN3C2)ccn1.Cl [Example 334, (4S)-N-(4-(2-methyloxazol-4-yl)pyridin-2-yl)-7-(2-methylpyridin-4-yl)-3,4-dihydro-1,4-methanopyrido[2,3-b][1,4]diazepine-5(2H)-carboxamide] | A (EC1.5<1 μM) | A (Fold activation ≧150%)
24 | Cc1cc(-c2ccc3c(n2)N(C(=O)Nc2cc(-n4ccnn4)ccn2)[C@H]2CCN3C2)ccn1 [Example 341] | – | A (Fold activation ≧150%)
25 | Cc1cc(-c2ccc3c(n2)N(C(=O)Nc2nccc(-c4cnc(C)o4)n2)[C@H]2CCN3C2)ccn1 [Example 353] | – | A (Fold activation ≧150%)
26 | Cc1cc(-c2ccc3c(n2)N(C(=O)Nc2nccc(-c4cnco4)n2)[C@H]2CCN3C2)ccn1 [Example 355] | – | A (Fold activation ≧150%)
